Experimental data published in publication PMC3885398, “Evaluation of the Antitumor Effects of BPR1J-340, a Potent and Selective FLT3 Inhibitor, Alone or in Combination with an HDAC Inhibitor, Vorinostat, in AML Cancer” (PLoS ONE, 2014).

Key:
Type in all cases: cell-based
[1] = tested on: STAT5 phosphorylation; assay: STAT5 phosphorylation in MV4;11 cells, Western blot; conditions: Homo sapiens, 1 hour
Description: Cells were lysed in lysis buffer (50 mM Tris, pH 8.0, 150 mM NaCl, 1% Triton X-100, 0.5% sodium deoxycholate, 0.1% SDS, 1 mM sodium orthovanadate, 1 mM PMSF, and 1 mM DTT). Protein lysates were resolved by SDS-PAGE and transferred onto a polyvinylidene difluoride (PVDF) membrane (Millipore, Bedford, MA, USA). The membranes were immunoblotted with appropriate antibodies and detected using the SuperSignal reagent (Pierce, Rockford, IL, USA) followed by exposure to X-ray film.
To address whether BPR1J-340 was able to inhibit the FLT3 signaling pathway in FLT3-driven cells, MV4;11 cells were treated with different concentrations of BPR1J-340 for 1 hour, and the phosphorylation status of FLT3 and STAT5 (Signal Transducer and Activator of Transcription 5), a critical down-stream modulator that plays a major role in FLT3-ITD signal transduction for cell expansion and survival, was examined by Western blot analysis. […] To investigate the difference in sensitivity between FLT3-WT and the activating mutants FLT3-ITD and FLT3-D835Y to BPR1J-340, HEK293T cells engineered to express FLT3-WT or mutants FLT3 (FLT3-ITD, FLT3-D835Y) were analyzed. […]
Figure 2 BPR1J-340 inhibits FLT3-dependent signaling. […] The phosphorylation status of FLT3 and STAT5 were evaluated by Western blot analysis. […] The FLT3 phosphorylation status in the transfected cells was evaluated by Western blot analysis.

[2] = tested on: MiaPaCa-2; assay: Cell viability MTS assay; conditions: Homo sapiens, MIA PaCa-2; MiaPaCa-2, non-leukemia; read-out: Proliferation GI50
Description: (§1) Cell viability was assessed with an MTS assay as carried out as the method described previously. Cells were seeded in 96-well plates at a density of 10,000 cells per well for 16 hours and then treated with vehicle or various concentrations of compound in medium. The change in viable cells was quantitated using the MTS method (Promega, Madison, WI, USA) according to the manufacturer's recommended protocol or by cell counting under a microscope. The GC50 value was defined as the amount of compound that caused a 50% reduction in cell viability in comparison with DMSO-treated (vehicle) control and was calculated using Prism version 4 software (Graph-Pad Software, Inc., San Diego, CA, USA). The data are presented as the mean ± S.D. from three independent experiments. Cell growth were measured by trypan blue dye exclusion method. Cells (1×10^4 mL^−1) were cultured in 12-well plates for 24 hours and then treated with different amounts of test compound and the same volumes of vehicle for 72 hours. The number of viable cells was counted by trypan blue dye staining using a hemocytometer at the indicated time point after drug treatment. The result was expressed as the mean ± S.D. from triplicate determinations.

[3] = tested on: RT4; assay: Cell viability MTS assay; conditions: Homo sapiens, RT-4; RT4, non-leukemia; read-out: Proliferation GI50
Description: as §1

[4] = tested on: NCIH460; assay: Cell viability MTS assay; conditions: Homo sapiens, NCI-H460; NCIH460, non-leukemia; read-out: Proliferation GI50
Description: as §1

[5] = tested on: MKN45; assay: Cell viability MTS assay; conditions: Homo sapiens, MKN-45; MKN45, non-leukemia; read-out: Proliferation GI50
Description: as §1

[6] = tested on: HCT-116; assay: Cell viability MTS assay; conditions: Homo sapiens; HCT-116, non-leukemia; read-out: Proliferation GI50
Description: as §1

[7] = tested on: HCC827; assay: Cell viability MTS assay; conditions: Homo sapiens; HCC827, non-leukemia; read-out: Proliferation GI50
Description: as §1

[8] = tested on: A431; assay: Cell viability MTS assay; conditions: Homo sapiens, A-431; A431, non-leukemia; read-out: Proliferation GI50
Description: as §1

[9] = tested on: H1975; assay: Cell viability MTS assay; conditions: Homo sapiens, NCI-H1975; H1975, non-leukemia; read-out: Proliferation GI50
Description: as §1

[10] = tested on: RS4;11; assay: Cell viability MTS assay; conditions: Homo sapiens; RS4;11, leukemia, wild-type FLT3, FLT3-independent; read-out: Proliferation GI50 (GC50 in the text)
Description: as §1

[11] = tested on: Hep3B; assay: Cell viability MTS assay; conditions: Homo sapiens, non-leukemia, read-out: Proliferation GI50
Description: as §1

[12] = tested on: Detroit551; assay: Cell viability MTS assay; conditions: Homo sapiens, Detroit 551; Detroit551, non-leukemia; read-out: Proliferation GI50
Description: as §1

[13] = tested on: Huh7; assay: Cell viability MTS assay; conditions: Homo sapiens, Huh-7; Huh7, non-leukemia; read-out: Proliferation GI50
Description: as §1

[14] = tested on: MCF-7; assay: Cell viability MTS assay; conditions: Homo sapiens, MCF7; MCF-7, non-leukemia; read-out: Proliferation GI50
Description: as §1

[15] = tested on: H2228; assay: Cell viability MTS assay; conditions: Homo sapiens, NCI-H2228; H2228, non-leukemia; read-out: Proliferation GI50
Description: as §1

[16] = tested on: U937; assay: Cell viability MTS assay; conditions: Homo sapiens, U-937; U937, leukemia; read-out: Proliferation GI50
Description: as §1

[17] = tested on: K562; assay: Cell viability MTS assay; conditions: Homo sapiens; K562, leukemia; read-out: Proliferation GI50
Description: as §1

[18] = tested on: H1650; assay: Cell viability MTS assay; conditions: Homo sapiens, NCI-H1650; H1650, non-leukemia; read-out: Proliferation GI50
Description: as §1

CCc1cc(NC(=O)NCc2ccc(-c3cc(NC(=O)c4ccc(CN5CCN(C)CC5)cc4)[nH]n3)cc2)no1 [BPR1J-340, N1-(3-4-[([(5-ethyl-3-isoxazolyl)amino]carbonylamino)methyl]phenyl-1H-5-pyrazolyl)-4-[(4-methylpiperazino)methyl]benzamide]
IC50 [1]: ~0.001 µM | GI50 [2]: 9.96 µM | GI50 [3]: 7.03 µM | GI50 [4]: 13.2 µM | GI50 [5]: 3.58 µM | GI50 [6]: 9.33 µM | GI50 [7]: 2.47 µM | GI50 [8]: 6.57 µM | GI50 [9]: 2.61 µM | GI50 [10]: 0.77 ± 0.36 µM | GI50 [11]: 8.31 µM | GI50 [12]: 8.34 µM | GI50 [13]: 9.74 µM | GI50 [14]: 11.3 µM | GI50 [15]: 2.52 µM | GI50 [16]: 2.4 µM | GI50 [17]: 6.37 µM | GI50 [18]: 3.73 µM
